For test [1], the system named is CNS lesions (lysolecithin-induced focal demyelination). Nature of the test: Lysolecithin-induced focal demyelination of the spinal cord, immunohistochemistry of lesions. The class given is in vivo, mice. How it is done: Focal demyelination was induced by injecting 1% lysolecithin (Sigma-Aldrich) into the spinal cord ventral funiculus of 8-12 weeks old C57B1/6 mice of either sex. At 5 and 10 days post lesion (dpl), mice were perfused intracardially with 4% (w/v) paraformaldehyde (PFA; Sigma). To perform IHC, mice were perfusion-fixed with 4% PFA (Sigma). Spinal cords were dissected and postfixed for 30 min in 4% PFA at 4° C. and cryoprotected in 20% (w/v) sucrose (Sigma) in PBS overnight before freezing in O.C.T. on the surface of dry ice. Twelve-micrometer-thick spinal cord sections were cut using cryostat (Leica CM1900), collected on SuperFrostPlus slides (VWR International), and allowed to dry for 30 min before storing at −80° C. For IHC, sections were incubated in blocking solution (0.1% Triton™ X-100 and 10% FBS in PBS) for 1 h at room temperature (RT). Primary antibodies were diluted in blocking solution and applied overnight at 4° C. Fluorescent dye-conjugated secondary antibodies were obtained from Life Technologies and used according to the manufacturer's instruction. Focal demyelination was induced by injecting 1% lysolecithin, JPH203 or PBS control was injected via intraperitoneal from 5-9 dpl. Mice were sacrificed at 10 dpl by intracardial perfusion with 4% PFA (Sigma). IHC was performed as previously described. Twelve-micrometer-thick fixed spinal cord sections were cut using cryostat (Leica CM1900), collected on SuperFrostPlus slides (VWR International), and allowed to dry for 30 min before storing at −80° C. For IHC, sections were incubated in blocking solution (0.1% Triton™ X-100 and 10% FBS in PBS) for 1 h at room temperature (RT). Primary antibodies were diluted in blocking solution and applied overnight at 4° C. Sources and dilutions of primary antibodies were as follows: rabbit anti-Olig2 (1:300; Millipore), mouse anti-CC1 (1:200; Sigma). Fluorescent dye-conjugated secondary antibodies were obtained from Life Technologies and used according to the manufacturer's instruction. Antigen retrieval was used for Olig2 and mouse on mouse antigen retrieval with M.O.M.™ kit (Vector Laboratories) for CC1. DAPI nuclear counterstain was used before mounting sections with fluoromount-G (Southern-Biotech). ImageJ (NIH) was used to quantify Olig2+ CC1+ cells.

The next test has as its system EAE mice. Put plainly: Experimental autoimmune encephalomyelitis (EAE) mouse model, clinical scoring. The class given is in vivo, C57BL/6 female mice. The text has this:
C57BL/6 female mice (Charles River) at age 10-12 weeks were acclimatized for 7 days prior to inducing experimental autoimmune encephalomyelitis (EAE). EAE was induced using the EAE kit (Hooke Laboratories, Cat. No: EK-2110) according to the Hooke Laboratories protocol (on the world wide web at hookelabs.com/protocols/eaeAI_C57BL6.html). Briefly, mice were immunized by an emulsion of MOG35-55 in complete Freund's adjuvant (CFA) injected subcutaneously at two sites (Day 0), followed by administration of pertussis toxin (PTX) intraperitoneally, first on the day of immunization (Day 0), and then again the following day (Day 1). Approximately 115 ng of PTX for each of the two PTX administrations were used.
The mice were scored blindly and daily from EAE Day 7 until at least EAE Day 30 according to the protocol from Hooke Laboratories. The scoring system used was as follows: 0.0=no obvious changes in motor function; 0.5=tip of tail is limp; 1.0=limp tail; 1.5=limp tail and hind leg inhibition; 2.0=limp tail and weakness of hind legs or signs of head tilting; 2.5=limp tail and dragging of hind legs or strong head tilting; 3.0=limp tail and complete paralysis of hind legs or limp tail with paralysis of one front and one hind leg; 3.5=limp tail and complete paralysis of hind legs plus mouse unable to right itself when placed on its side; 4.0=limp tail, complete hind leg and partial front leg paralysis, mouse is minimally moving but appears alert and feeding; 4.5=complete hind and partial front leg paralysis, no movement around the cage, mouse is not alert; 5.0=mouse is found dead due to paralysis or mouse is euthanized due to severe paralysis
The clinical scores and weight of mice were recorded daily until the end of experiment. […] For each experiment, 8 to 10 mice from each group were analyzed.
EAE mice were treated with L-type amino acid transporter 1 (LAT1) inhibitor JPH203 dihydrochloride starting at scores 1.0 and 3.0. […] Clinical scores of the animals from each group were recorded at 1-7 days after the first injection.

The source of these data is US12447145B2, “Compositions and methods for treating inflammatory neurological disorders” (Georgetown University, priority 2018, dated 2025).

For the compound `Nc1cc(COc2c(Cl)cc(C[C@H](N)C(=O)O)cc2Cl)c2oc(-c3ccccc3)nc2c1` [JPH203, (S)-2-Amino-3-(4-((5-amino-2-phenylbenzo[d]oxazol-7-yl)methoxy)-3,5-dichlorophenyl) propanoic acid], the “macrophage morphology in lesion at higher magnification” value in test [1] (10 dpl, control lesion macrophages rounded amoeboid/foamy, FIG. 3F/3G) is on record as “more ramified appearance, indicating reduced inflammatory activity”. Also, in test [1] (10 dpl, versus control lesion, FIG. 3F/3G), the “iNOS labeling of macrophages at higher magnification” value is “very little iNOS labeling”. Moreover, in test [1] (intraperitoneal injection 5-9 dpl, analysis at 10 dpl, compared to PBS control, FIG. 3A/3B), the “number of mature oligodendrocytes in lesions” value was “increased number of mature oligodendrocytes in lesions”. In addition, the “increase in oligodendrocytes (Olig2+ CC1+ cells), quantification” value in test [1] (intraperitoneal injection 5-9 dpl, analysis at 10 dpl, versus PBS control, FIG. 3C, P<0.05) turned out to be 2 fold. Also, in test [1] (intraperitoneal injection 5-9 dpl, analysis at 10 dpl, versus PBS treated lesion, FIG. 3D/3E), the “pro-inflammatory iNOS expression in lesion (Iba1+iNOS+ microglia/macrophages)” value is recorded as “dramatically reduced pro-inflammatory iNOS expression”. The “progression of EAE to higher scores” value with EAE mice (prophylactic treatment starting at score 1.0, PBS controls progressed to score 3.0 or higher, FIG. 2B) is listed as “prevented progression of EAE to higher scores”. In addition, in the test on EAE mice (treatment starting at clinical score 1.0, 25 mg/kg intraperitoneal daily for 5 days, compared to PBS control, FIG. 2B), the “motor recovery (clinical score), prophylactic efficacy” value was “motor recovery”. Moreover, the “motor recovery (clinical score), treatment efficacy” value with EAE mice (treatment starting at clinical score 3.0, 25 mg/kg intraperitoneal daily for 5 days, compared to PBS control, FIG. 2A) was “motor recovery”.
